Each block holds one compound with its values, some of them ahead of it. The source made the active and inactive calls.
Experiments:
HEK293 [1] = experiment: NOD1 signaling inhibitors, primary screen, cell-based, luminescence, uHTS (AID 1578); assay type: functional; details: Homo sapiens
HEK293 [2] = experiment: cells; assay type: functional, cell-based; details: Homo sapiens
HEK293 [3] = experiment: cells; assay type: functional, cell-based; details: Homo sapiens; remark: listed apart in the source
[4] = biological target: Nucleotide-binding oligomerization domain-containing protein 2 (Homo sapiens, UniProt Q9HC29); experiment: NOD2 signaling inhibitors, cell-based, luminescence, uHTS, HEK293 (AID 1566); assay type: functional
Chain of Nucleotide-binding oligomerization domain-containing protein 2 (Q9HC29 whole entry, the tested form may be a part): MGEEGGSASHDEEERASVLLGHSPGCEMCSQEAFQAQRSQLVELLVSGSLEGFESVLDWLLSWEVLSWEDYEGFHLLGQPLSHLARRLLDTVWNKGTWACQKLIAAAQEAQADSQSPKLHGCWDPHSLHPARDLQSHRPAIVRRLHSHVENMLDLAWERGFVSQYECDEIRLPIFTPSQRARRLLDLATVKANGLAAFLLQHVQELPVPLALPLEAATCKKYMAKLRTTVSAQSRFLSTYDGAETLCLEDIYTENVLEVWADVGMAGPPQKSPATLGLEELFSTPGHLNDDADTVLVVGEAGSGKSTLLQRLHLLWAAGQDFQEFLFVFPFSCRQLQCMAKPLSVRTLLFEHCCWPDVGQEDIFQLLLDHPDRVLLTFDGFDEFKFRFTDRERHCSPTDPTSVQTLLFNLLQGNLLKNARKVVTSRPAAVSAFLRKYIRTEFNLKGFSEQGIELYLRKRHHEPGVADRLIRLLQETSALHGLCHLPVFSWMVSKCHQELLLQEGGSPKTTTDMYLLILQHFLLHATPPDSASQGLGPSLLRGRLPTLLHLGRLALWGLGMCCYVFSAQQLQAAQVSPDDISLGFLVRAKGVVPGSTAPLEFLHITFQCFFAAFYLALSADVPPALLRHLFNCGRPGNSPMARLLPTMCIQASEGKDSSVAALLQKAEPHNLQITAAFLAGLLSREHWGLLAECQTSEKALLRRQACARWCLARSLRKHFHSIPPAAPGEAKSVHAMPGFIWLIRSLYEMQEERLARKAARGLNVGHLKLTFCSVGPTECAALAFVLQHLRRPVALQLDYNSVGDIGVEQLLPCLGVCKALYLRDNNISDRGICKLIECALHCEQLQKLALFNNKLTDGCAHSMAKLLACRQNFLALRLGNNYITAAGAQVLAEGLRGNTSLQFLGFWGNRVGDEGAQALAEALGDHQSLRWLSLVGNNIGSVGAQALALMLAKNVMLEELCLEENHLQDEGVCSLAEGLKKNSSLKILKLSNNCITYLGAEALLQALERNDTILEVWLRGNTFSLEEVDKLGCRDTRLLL

HEK293 [5] = experiment: NOD2 signaling inhibitors in MDP-stimulated cells, cell-based, uHTS, luminescence (AID 2001); assay type: functional; details: Homo sapiens
HEK293 [6] = experiment: cells; assay type: functional, cell-based; details: Homo sapiens; remark: listed apart in the source
[7] = biological target: T1, Corticotropin-releasing factor receptor 2/Corticotropin-releasing factor-binding protein (Homo sapiens, UniProt P24387+Q13324); experiment: Dose Response confirmation of uHTS hits for small molecule antagonists of the CRF-binding protein and CRF-R2 receptor complex.; assay type: functional; details: read-out: IC50_Mean
T1 sequence (Q13324 whole entry): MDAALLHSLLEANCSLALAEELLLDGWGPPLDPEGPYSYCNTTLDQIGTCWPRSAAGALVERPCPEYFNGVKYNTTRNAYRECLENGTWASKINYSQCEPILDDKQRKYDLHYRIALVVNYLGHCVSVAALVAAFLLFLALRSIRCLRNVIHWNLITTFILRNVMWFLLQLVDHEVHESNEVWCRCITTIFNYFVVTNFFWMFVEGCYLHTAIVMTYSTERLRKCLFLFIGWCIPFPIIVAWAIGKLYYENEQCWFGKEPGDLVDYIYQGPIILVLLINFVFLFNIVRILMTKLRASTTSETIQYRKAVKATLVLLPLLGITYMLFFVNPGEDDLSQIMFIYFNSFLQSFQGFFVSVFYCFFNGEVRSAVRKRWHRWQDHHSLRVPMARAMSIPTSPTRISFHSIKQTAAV
T1 sequence (P24387 whole entry): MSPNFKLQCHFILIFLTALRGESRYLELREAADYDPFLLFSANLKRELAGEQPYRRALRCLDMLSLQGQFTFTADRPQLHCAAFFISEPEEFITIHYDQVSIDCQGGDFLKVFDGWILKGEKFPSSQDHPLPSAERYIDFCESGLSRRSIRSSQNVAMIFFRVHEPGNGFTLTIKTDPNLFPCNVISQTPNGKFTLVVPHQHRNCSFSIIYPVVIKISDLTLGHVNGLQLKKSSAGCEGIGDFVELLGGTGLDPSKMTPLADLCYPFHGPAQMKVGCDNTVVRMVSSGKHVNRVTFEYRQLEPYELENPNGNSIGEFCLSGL

[8] = biological target: T1, Corticotropin-releasing factor receptor 2/Corticotropin-releasing factor-binding protein; experiment: activators of CRF receptor 2 with binding protein – uHTS hits, confirmation (AID 602473); assay type: functional; details: read-out: EC50_Mean
[9] = CRF-BP/CRF-R2 complex antagonists, dose response, cell-based, uHTS hits, 384-well (AID 651639); assay type: functional, Homo sapiens; details: read-out: IC50_Mean
Fatty acid synthase [10] = biological target: T2, Fatty acid synthase (Homo sapiens, UniProt P49327); experiment: FAS thioesterase domain inhibitors, dose response, biochemical, endpoint fluorescence intensity, uHTS hits (AID 624327); assay type: functional;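 further: fluorescence from hydrolysis of an O-methyl fluorescein acyl ester substrate by the enzyme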
T2 sequence (P49327 whole entry, the tested form may be a part): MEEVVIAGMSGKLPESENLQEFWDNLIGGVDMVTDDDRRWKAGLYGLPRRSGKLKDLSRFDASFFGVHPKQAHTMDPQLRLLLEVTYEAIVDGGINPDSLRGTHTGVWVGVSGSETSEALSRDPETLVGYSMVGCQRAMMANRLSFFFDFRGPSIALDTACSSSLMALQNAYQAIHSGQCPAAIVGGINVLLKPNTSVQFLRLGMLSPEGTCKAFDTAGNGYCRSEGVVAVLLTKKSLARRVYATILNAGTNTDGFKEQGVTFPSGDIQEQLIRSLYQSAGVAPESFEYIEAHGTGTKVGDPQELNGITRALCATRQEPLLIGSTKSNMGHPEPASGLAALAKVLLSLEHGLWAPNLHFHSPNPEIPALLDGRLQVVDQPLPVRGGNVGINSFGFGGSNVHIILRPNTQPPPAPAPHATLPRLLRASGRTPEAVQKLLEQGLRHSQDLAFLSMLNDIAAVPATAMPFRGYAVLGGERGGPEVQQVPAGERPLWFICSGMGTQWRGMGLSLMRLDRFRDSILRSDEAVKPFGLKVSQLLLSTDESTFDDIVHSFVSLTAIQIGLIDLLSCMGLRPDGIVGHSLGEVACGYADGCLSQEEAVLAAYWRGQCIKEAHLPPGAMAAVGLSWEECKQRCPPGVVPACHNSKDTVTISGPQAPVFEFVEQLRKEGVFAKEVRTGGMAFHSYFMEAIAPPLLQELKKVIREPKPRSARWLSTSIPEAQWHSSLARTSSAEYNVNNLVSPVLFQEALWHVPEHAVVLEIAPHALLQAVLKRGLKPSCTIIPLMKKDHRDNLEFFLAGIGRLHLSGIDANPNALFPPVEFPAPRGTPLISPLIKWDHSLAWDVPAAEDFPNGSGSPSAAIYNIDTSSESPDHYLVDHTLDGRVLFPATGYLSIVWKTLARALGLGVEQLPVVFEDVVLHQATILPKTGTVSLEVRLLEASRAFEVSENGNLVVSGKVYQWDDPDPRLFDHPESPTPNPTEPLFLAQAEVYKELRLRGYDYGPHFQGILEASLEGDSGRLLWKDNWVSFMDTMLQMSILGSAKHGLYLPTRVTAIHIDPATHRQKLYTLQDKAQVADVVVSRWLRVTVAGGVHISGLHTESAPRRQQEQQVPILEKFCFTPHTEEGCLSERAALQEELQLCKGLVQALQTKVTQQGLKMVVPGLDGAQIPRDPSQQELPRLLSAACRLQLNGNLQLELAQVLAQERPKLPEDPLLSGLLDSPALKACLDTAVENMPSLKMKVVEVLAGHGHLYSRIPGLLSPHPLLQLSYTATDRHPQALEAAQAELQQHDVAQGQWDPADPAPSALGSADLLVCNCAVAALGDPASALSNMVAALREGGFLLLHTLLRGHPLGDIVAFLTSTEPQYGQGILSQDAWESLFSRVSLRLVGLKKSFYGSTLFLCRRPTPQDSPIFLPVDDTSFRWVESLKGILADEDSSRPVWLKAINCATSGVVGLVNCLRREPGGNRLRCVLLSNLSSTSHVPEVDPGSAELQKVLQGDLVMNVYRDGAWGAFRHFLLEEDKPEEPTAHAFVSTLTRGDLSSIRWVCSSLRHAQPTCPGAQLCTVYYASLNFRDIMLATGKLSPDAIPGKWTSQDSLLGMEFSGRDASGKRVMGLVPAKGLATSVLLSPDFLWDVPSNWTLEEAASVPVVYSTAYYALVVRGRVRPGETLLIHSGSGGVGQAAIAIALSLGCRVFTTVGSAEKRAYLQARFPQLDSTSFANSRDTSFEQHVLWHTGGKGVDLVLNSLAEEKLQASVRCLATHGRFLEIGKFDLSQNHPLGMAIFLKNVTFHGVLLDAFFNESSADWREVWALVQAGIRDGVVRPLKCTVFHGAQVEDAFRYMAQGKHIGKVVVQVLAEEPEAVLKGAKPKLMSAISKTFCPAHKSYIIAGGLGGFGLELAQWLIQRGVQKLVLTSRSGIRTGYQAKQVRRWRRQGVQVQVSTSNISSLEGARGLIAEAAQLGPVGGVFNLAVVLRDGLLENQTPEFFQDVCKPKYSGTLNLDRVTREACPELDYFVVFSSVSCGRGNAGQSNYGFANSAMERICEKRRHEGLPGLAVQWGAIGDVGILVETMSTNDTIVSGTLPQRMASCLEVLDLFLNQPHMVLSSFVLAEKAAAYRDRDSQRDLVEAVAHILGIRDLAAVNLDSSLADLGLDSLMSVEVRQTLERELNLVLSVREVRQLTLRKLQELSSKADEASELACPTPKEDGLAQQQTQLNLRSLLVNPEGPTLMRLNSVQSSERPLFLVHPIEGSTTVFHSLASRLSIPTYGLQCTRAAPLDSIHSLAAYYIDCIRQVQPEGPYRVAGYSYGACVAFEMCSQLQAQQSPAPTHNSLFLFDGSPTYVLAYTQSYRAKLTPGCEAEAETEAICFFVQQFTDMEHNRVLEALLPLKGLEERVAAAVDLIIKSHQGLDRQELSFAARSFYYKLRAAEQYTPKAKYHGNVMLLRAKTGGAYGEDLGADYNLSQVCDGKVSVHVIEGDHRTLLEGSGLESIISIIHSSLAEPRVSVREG

Fatty acid synthase [11] = biological target: T2, Fatty acid synthase; experiment: FAS thioesterase domain inhibitors, dose response, biochemical, kinetic fluorescence intensity (AID 624326); assay type: functional;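 further: rate of fluorescence rise from hydrolysis of a fluorogenic O-methyl fluorescein ester substrate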
[12] = ARNT/TACC3 interaction disruptors, potency, confirmation, biochemical, AlphaScreen, cherry-picked samples (AID 651703); assay type: functional, Homo sapiens;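 further: His-tagged ARNT PAS-B domain paired with GST-TACC3 E629A dimer coactivator fragment; potency of inhibitors that break up the complex and lower AlphaScreen signal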
[13] = growth suppression of PTEN-null colon cells, dose response, cell-based, HCT116 PTEN knockout (AID 1047); assay type: functional;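 further: HCT116 colon tumor cells with PTEN knocked out; cells exposed to compound for 60 hours before readout; potency for loss of cell viability measured by luminescence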
[14] = growth suppression of beta-catenin-knockout colon cells, dose response, cell-based, HCT116, human colon tumor (AID 1045); assay type: functional;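 further: HCT116 colon tumor cells with beta catenin knocked out; cells exposed to compound for 60 hours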
Caspase-3 = biological target: T3, Caspase-3 (Homo sapiens, UniProt P42574); assay type: functional;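 further: Dose-response selectivity test against caspase-3 for candidate inhibitors of sentrin-specific proteases (SENPs)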
T3 sequence (P42574 whole entry): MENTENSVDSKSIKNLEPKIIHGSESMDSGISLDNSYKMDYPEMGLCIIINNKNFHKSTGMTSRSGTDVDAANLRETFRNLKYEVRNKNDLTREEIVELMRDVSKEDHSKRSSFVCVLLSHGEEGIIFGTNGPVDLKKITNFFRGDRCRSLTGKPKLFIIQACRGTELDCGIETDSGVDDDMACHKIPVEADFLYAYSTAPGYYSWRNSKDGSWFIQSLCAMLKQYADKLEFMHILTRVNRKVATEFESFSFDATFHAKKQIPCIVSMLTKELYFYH

[15] = biological target: T4, Sentrin-specific protease 7 (Homo sapiens, UniProt Q9BQF6); assay type: functional;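 further: Luminescence-based dose-response confirmation of ultra-high-throughput screening hits, measuring inhibition of SENP7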
T4 sequence (Q9BQF6 whole entry): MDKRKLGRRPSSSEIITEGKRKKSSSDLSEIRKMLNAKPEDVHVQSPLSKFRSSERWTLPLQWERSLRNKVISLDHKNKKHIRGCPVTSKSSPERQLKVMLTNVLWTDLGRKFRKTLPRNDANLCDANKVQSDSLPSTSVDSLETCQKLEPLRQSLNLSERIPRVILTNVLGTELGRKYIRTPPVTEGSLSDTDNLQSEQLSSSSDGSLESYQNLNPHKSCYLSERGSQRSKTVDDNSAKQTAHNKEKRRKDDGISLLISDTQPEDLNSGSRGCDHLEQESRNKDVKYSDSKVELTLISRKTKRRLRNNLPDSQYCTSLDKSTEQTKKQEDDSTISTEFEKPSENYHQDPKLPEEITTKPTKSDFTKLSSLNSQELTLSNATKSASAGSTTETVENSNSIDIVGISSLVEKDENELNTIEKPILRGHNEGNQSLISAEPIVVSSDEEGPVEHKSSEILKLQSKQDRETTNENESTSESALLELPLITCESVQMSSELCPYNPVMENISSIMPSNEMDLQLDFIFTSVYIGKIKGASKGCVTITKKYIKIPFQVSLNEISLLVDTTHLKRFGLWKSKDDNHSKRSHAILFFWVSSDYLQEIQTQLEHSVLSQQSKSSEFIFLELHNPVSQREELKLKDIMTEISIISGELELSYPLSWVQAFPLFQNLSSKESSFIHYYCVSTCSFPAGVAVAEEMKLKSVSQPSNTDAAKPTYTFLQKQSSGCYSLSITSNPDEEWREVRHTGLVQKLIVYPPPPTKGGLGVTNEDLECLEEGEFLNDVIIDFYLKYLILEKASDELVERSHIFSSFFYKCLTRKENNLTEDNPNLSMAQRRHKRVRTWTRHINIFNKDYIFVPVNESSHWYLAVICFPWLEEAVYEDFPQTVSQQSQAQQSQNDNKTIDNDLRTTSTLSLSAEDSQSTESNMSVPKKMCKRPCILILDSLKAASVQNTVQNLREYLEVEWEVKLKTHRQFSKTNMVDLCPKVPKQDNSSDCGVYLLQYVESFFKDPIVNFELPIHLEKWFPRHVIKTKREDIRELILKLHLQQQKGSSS

[16] = biological target: T5, Sentrin-specific protease 6 (Homo sapiens, UniProt Q9GZR1); assay type: functional;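 further: Luminescence-based dose-response confirmatory assay of SENP6 inhibition, following up an ultra-high-throughput screen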
T5 sequence (Q9GZR1 whole entry): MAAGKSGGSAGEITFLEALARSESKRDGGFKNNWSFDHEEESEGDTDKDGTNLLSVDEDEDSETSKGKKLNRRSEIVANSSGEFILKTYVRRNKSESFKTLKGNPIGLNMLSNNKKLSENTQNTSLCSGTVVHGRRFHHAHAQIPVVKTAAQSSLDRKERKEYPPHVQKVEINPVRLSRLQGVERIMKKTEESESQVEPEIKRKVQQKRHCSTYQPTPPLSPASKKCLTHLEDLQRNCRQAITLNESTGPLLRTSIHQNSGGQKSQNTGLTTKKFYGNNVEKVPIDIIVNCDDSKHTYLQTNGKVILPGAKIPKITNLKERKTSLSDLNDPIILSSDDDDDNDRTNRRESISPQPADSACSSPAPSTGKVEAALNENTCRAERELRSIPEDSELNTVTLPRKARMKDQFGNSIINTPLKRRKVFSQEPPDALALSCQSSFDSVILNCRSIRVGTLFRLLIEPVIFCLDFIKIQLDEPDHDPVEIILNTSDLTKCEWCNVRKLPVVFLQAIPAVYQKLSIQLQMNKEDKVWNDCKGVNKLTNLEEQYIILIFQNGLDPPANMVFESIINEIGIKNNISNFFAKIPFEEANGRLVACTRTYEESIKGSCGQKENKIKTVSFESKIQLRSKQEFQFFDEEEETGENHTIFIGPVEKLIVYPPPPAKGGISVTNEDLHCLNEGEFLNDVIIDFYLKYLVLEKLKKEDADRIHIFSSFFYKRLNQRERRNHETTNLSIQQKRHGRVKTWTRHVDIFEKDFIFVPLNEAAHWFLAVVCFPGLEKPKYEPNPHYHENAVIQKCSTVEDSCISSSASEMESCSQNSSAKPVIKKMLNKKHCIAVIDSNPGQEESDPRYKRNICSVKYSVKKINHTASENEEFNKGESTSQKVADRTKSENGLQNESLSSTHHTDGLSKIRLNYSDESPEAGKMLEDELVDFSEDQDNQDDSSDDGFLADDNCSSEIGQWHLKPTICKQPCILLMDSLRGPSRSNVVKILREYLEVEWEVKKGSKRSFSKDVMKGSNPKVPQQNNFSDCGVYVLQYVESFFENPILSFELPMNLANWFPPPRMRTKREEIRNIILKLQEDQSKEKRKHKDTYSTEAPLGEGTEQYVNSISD

[17] = biological target: T6, Sentrin-specific protease 8 (Homo sapiens, UniProt Q96LD8); assay type: functional;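 further: luminescence read-out of SENP8 inhibition, dose-response confirmation following an ultra-high-throughput screen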
T6 sequence (Q96LD8 whole entry): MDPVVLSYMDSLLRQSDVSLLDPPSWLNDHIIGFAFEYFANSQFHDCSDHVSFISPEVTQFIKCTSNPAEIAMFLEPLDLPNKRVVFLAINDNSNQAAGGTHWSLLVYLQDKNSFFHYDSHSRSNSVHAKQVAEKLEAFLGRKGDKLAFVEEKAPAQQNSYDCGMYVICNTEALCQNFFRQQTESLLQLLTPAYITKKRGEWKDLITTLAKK

Large T antigen = Large T antigen (Simian virus 40, UniProt P03070); assay type: functional, Betapolyomavirus macacae;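 further: Confirmatory-stage PubChem screen for compounds that inhibit SV40 T antigen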
Chain of Large T antigen (P03070 whole entry): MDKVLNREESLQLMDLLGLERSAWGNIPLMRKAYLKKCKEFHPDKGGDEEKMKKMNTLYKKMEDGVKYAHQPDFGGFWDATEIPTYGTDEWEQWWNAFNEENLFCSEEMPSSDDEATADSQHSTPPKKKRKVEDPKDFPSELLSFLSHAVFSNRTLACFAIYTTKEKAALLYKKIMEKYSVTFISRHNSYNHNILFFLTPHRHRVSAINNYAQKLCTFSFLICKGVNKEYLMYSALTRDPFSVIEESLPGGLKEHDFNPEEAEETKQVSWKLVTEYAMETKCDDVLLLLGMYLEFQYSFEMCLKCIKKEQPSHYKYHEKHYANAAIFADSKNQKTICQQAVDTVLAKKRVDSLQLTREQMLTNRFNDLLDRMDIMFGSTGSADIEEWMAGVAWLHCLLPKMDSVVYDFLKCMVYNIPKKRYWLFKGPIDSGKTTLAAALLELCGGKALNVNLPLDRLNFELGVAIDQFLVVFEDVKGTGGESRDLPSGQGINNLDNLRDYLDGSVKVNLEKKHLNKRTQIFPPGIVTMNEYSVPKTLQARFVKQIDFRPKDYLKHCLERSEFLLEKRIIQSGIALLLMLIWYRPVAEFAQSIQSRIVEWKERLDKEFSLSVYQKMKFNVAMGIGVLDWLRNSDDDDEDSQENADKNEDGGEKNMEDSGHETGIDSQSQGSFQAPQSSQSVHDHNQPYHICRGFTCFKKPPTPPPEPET

[18] = biological target: T7, Rac GTPase-activating protein 1 (Homo sapiens, UniProt Q9H0H5); experiment: MgcRacGAP GTPase-activating activity inhibitors, confirmation, biochemical, ADP Hunter fluorescence, primary and confirmatory (AID 624330); assay type: functional
T7 sequence (Q9H0H5 whole entry): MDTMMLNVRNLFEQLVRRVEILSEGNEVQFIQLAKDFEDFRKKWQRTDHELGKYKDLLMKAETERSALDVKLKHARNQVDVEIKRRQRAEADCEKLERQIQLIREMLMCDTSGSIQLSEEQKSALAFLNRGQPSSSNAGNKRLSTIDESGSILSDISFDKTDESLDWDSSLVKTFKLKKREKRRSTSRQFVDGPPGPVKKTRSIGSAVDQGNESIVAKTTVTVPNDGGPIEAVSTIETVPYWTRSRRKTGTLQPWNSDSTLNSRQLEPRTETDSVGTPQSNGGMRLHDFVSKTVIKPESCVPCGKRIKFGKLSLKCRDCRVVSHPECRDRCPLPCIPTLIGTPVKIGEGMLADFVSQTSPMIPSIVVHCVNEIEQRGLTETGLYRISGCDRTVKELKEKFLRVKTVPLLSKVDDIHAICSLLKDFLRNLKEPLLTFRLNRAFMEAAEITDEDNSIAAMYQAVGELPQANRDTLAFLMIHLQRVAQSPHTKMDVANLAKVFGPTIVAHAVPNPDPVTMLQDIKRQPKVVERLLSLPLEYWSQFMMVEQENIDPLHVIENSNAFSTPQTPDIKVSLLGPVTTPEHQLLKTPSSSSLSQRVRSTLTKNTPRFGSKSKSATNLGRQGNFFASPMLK

SMILES: O=C1S/C(=C\c2ccc(O)c([N+](=O)[O-])c2)C(=O)N1Cc1cccc([N+](=O)[O-])c1
EC50 (HEK293 [1]): 4.33 µM (active)
IC50 (HEK293 [2]): 7.53 µM (active)
IC50 (HEK293 [3]): 17.1 µM (active)
EC50 [4]: 4.39 µM (active)
IC50 (HEK293 [5]): 5.79 µM (inactive)
IC50 (HEK293 [6]): > 20 µM (inactive)
IC50 [7]: 4.71 µM (active)
EC50 [8]: > 53 µM (inactive)
IC50 [9]: > 20 µM (inactive)
IC50 (Fatty acid synthase [10]): 3.83 µM (active)
IC50 (Fatty acid synthase [11]): 3.73 µM (active)

SMILES: O=C(Nc1ccc2c(c1)[C@@H]1C[C@H](CC(=O)N3CCc4ccccc4C3)O[C@@H](CO)[C@@H]1O2)c1ccc2c(c1)OCO2
AC50 [12]: 134 µM (active)

SMILES: CCCSC(=N)N/N=C/c1cc(C)ccc1O
EC50 [13]: 32.5 µM (active)
EC50 [14]: 30 µM (active)
IC50 (Caspase-3): 46.3 µM (active)
IC50 [15]: 11.4 µM (active)
IC50 [16]: 93.5 µM (active)
IC50 [17]: > 100 µM (inactive)

IC50 (Large T antigen): 7.45 µM (active)
IC50 [18]: 34.2 µM (active)
SMILES: CCOc1cc(/C=N/NC(=O)CSc2cccc3cccnc23)ccc1O
AC50 [12]: 90 µM (active)

IC50 (Caspase-3): 29.8 µM (active)
IC50 [15]: 4.19 µM (active)
IC50 [16]: 12.8 µM (active)
SMILES: C(=N\Nc1nc(-c2ccccc2)cs1)/c1cccs1
IC50 [17]: 31.6 µM (active)

Source: ChEMBL document CHEMBL1201862, “PubChem BioAssay data set” (2004)
